Reference: PubChem BioAssay AID1963826 (Molecular Pharmacology Branch, DTP, NCI, 2024)

System: 926638-142-R-J1-PDC complex spheroid viability
Test: Anticancer human tumor 926638-142-R-J1-PDC patient-derived endometrial carcinoma cell line growth inhibition [POLQ]
Details: for IC50: curve of first compound; for viability, T/C: stronger effect = lower value
Method in brief: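 Three-cell-type spheroids modelling solid tumor plus stroma served as the readout system; POL inhibitors were tested individually and in combination, concentration ranges set by clinical Cmax where known.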

[1] = second compound 0.0316 µM, first compound 0.0316 µM
[2] = second compound 0.0316 µM, first compound 0.1 µM
[3] = second compound 0.0316 µM, first compound 0.316 µM
[4] = second compound 0.0316 µM, first compound 1 µM
[5] = second compound 0.0316 µM, first compound 3.16 µM
[6] = second compound 0.0316 µM, first compound 10 µM
[7] = second compound 0.1 µM, first compound 0.0316 µM
[8] = second compound 0.1 µM, first compound 0.1 µM
[9] = second compound 0.1 µM, first compound 0.316 µM
[10] = second compound 0.1 µM, first compound 1 µM
[11] = second compound 0.1 µM, first compound 3.16 µM
[12] = second compound 0.1 µM, first compound 10 µM
[13] = second compound 0.316 µM, first compound 0.0316 µM
[14] = second compound 0.316 µM, first compound 0.1 µM
[15] = second compound 0.316 µM, first compound 0.316 µM
[16] = second compound 0.316 µM, first compound 1 µM
[17] = second compound 0.316 µM, first compound 3.16 µM
[18] = second compound 0.316 µM, first compound 10 µM
[19] = second compound 1 µM, first compound 0.0316 µM
[20] = second compound 1 µM, first compound 0.1 µM
[21] = second compound 1 µM, first compound 0.316 µM
[22] = second compound 1 µM, first compound 1 µM
[23] = second compound 1 µM, first compound 3.16 µM
[24] = second compound 1 µM, first compound 10 µM
[25] = second compound 3.16 µM, first compound 0.0316 µM
[26] = second compound 3.16 µM, first compound 0.1 µM
[27] = second compound 3.16 µM, first compound 0.316 µM
[28] = second compound 3.16 µM, first compound 1 µM
[29] = second compound 3.16 µM, first compound 3.16 µM
[30] = second compound 3.16 µM, first compound 10 µM
[31] = second compound 10 µM, first compound 0.0316 µM
[32] = second compound 10 µM, first compound 0.1 µM
[33] = second compound 10 µM, first compound 0.316 µM
[34] = second compound 10 µM, first compound 1 µM
[35] = second compound 10 µM, first compound 3.16 µM
[36] = second compound 10 µM, first compound 10 µM
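Also: spheroids exposed to drugs for one week before readout.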
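For viability, T/C in this document: percent viability relative to DMSO vehicle control wells set as 100%.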

C#Cc1c(F)ccc2cc(O)cc(-c3ncc4c(N5CC6CCC(C5)N6)nc(OCC56CCCN5CC(F)C6)nc4c3F)c12 (stereo unspecified) + COC1C(OC(N)=O)C(O)C(Oc2ccc3c(O)c(NC(=O)c4ccc(O)c(CC=C(C)C)c4)c(=O)oc3c2C)OC1(C)C was tested, and the IC50 (second compound 0.0316 µM) was greater than 10000 nM, the IC50 (second compound 0.1 µM) was greater than 10000 nM and the IC50 (second compound 0.316 µM) was greater than 10000 nM. The IC50 (second compound 1 µM) was greater than 10000 nM, the IC50 (second compound 3.16 µM) was greater than 10000 nM and the IC50 (second compound 10 µM) was greater than 10000 nM. The viability, T/C [1] was 99.4%, the viability, T/C [2] was 84.1% and the viability, T/C [3] was 89%. For the same compound, the viability, T/C [4] was 84.2%, the viability, T/C [5] was 60.1% and the viability, T/C [6] was 54.6%. The viability, T/C [7] was 90.2%, the viability, T/C [8] was 86.6% and the viability, T/C [9] was 81.3%. For the same compound, the viability, T/C [10] was 72.9%, the viability, T/C [11] was 66.4% and the viability, T/C [12] was 51.9%. It also gave a viability, T/C [13] of 97.1%, a viability, T/C [14] of 73.7% and a viability, T/C [15] of 89.4%. For the same compound, the viability, T/C [16] was 64.9%, the viability, T/C [17] was 59.4% and the viability, T/C [18] was 65.9%. The viability, T/C [19] was 84.8%, the viability, T/C [20] was 81.7% and the viability, T/C [21] was 80.9%. The viability, T/C [22] was 71.9%, the viability, T/C [23] was 72.2% and the viability, T/C [24] was 61.9%. The viability, T/C [25] was 78.9%, the viability, T/C [26] was 84.2% and the viability, T/C [27] was 77.9%. For the same compound, the viability, T/C [28] was 72.2%, the viability, T/C [29] was 64.4% and the viability, T/C [30] was 52.5%. It also gave a viability, T/C [31] of 85.2%, a viability, T/C [32] of 73.5% and a viability, T/C [33] of 91.3%. The viability, T/C [34] was 67.4%, the viability, T/C [35] was 68.4% and the viability, T/C [36] was 62.9%.
Work on CCc1cc2c(N3CCc4c(cc(Cn5ccnc5)cc4-c4cn(C)nc4C(F)(F)F)C3=O)cc(C)nc2c(OC)n1 + COC1C(OC(N)=O)C(O)C(Oc2ccc3c(O)c(NC(=O)c4ccc(O)c(CC=C(C)C)c4)c(=O)oc3c2C)OC1(C)C yielded an IC50 (second compound 0.0316 µM) of 400 nM, an IC50 (second compound 0.1 µM) of 277 nM and an IC50 (second compound 0.316 µM) of 313 nM. It also gave an IC50 (second compound 1 µM) of 214 nM, an IC50 (second compound 3.16 µM) of 244 nM and an IC50 (second compound 10 µM) of 667 nM. It also gave a viability, T/C [1] of 79.3%, a viability, T/C [2] of 65.2% and a viability, T/C [3] of 49.6%. The viability, T/C [4] was 42.6%, the viability, T/C [5] was 33.4% and the viability, T/C [6] was 23.4%. The viability, T/C [7] was 72.5%, the viability, T/C [8] was 73% and the viability, T/C [9] was 46.9%. The viability, T/C [10] was 27.6%, the viability, T/C [11] was 26% and the viability, T/C [12] was 23.8%. For the same compound, the viability, T/C [13] was 68%, the viability, T/C [14] was 52% and the viability, T/C [15] was 52.7%. It also gave a viability, T/C [16] of 43.6%, a viability, T/C [17] of 31.1% and a viability, T/C [18] of 23.5%. It also gave a viability, T/C [19] of 88.8%, a viability, T/C [20] of 60.7% and a viability, T/C [21] of 46.9%. For the same compound, the viability, T/C [22] was 31.2%, the viability, T/C [23] was 28.8% and the viability, T/C [24] was 28.9%. It also gave a viability, T/C [25] of 60.1%, a viability, T/C [26] of 58.4% and a viability, T/C [27] of 47.1%. It also gave a viability, T/C [28] of 35.8%, a viability, T/C [29] of 27.6% and a viability, T/C [30] of 21.6%. The viability, T/C [31] was 66.9%, the viability, T/C [32] was 65.8% and the viability, T/C [33] was 62.3%. It also gave a viability, T/C [34] of 43.1%, a viability, T/C [35] of 29.7% and a viability, T/C [36] of 25%.
For COc1ccc([C@@H](O)c2cc(-c3ncnc4cc(N5CCOCC5)ccc34)c(F)cc2Cl)nn1 + COC1C(OC(N)=O)C(O)C(Oc2ccc3c(O)c(NC(=O)c4ccc(O)c(CC=C(C)C)c4)c(=O)oc3c2C)OC1(C)C, the IC50 (second compound 0.0316 µM) was 434 nM, the IC50 (second compound 0.1 µM) was 454 nM and the IC50 (second compound 0.316 µM) was 535 nM. For the same compound, the IC50 (second compound 1 µM) was 443 nM, the IC50 (second compound 3.16 µM) was 634 nM and the IC50 (second compound 10 µM) was 468 nM. For the same compound, the viability, T/C [1] was 106%, the viability, T/C [2] was 77.5% and the viability, T/C [3] was 64%. For the same compound, the viability, T/C [4] was 28.1%, the viability, T/C [5] was 16.5% and the viability, T/C [6] was 8.85%. For the same compound, the viability, T/C [7] was 109%, the viability, T/C [8] was 89% and the viability, T/C [9] was 64%. For the same compound, the viability, T/C [10] was 24.4%, the viability, T/C [11] was 12.6% and the viability, T/C [12] was 7.89%. For the same compound, the viability, T/C [13] was 106%, the viability, T/C [14] was 92.4% and the viability, T/C [15] was 64.9%. The viability, T/C [16] was 31.9%, the viability, T/C [17] was 17.5% and the viability, T/C [18] was 9.34%. For the same compound, the viability, T/C [19] was 84.7%, the viability, T/C [20] was 82.3% and the viability, T/C [21] was 57.7%. For the same compound, the viability, T/C [22] was 29.1%, the viability, T/C [23] was 10.7% and the viability, T/C [24] was 9.06%. For the same compound, the viability, T/C [25] was 96.4%, the viability, T/C [26] was 102% and the viability, T/C [27] was 80.4%. It also gave a viability, T/C [28] of 29.8%, a viability, T/C [29] of 11.9% and a viability, T/C [30] of 7.51%. For the same compound, the viability, T/C [31] was 91.6%, the viability, T/C [32] was 88.9% and the viability, T/C [33] was 57.8%. The viability, T/C [34] was 30.9%, the viability, T/C [35] was 14% and the viability, T/C [36] was 7.25%.
